Assay results taken from patent US20240383908A1, “SYNTHESIS AND APPLICATION OF PHOSPHATASE DEGRADER” (HINOVA PHARMACEUTICALS INC., priority 2021, published 2024).

target: T1, SHP2 protein (Homo sapiens, UniProt Q06124); experiment: Degradation activity on SHP2 protein in MV-411 cells (Western blot, DC50); format: cell-based; design: endogenous in cells; conditions: MV411 cells, 24 hours, read-out: Degradation activity for differenct cell lines MV411 (DC50)
T1 sequence (Q06124 1-593): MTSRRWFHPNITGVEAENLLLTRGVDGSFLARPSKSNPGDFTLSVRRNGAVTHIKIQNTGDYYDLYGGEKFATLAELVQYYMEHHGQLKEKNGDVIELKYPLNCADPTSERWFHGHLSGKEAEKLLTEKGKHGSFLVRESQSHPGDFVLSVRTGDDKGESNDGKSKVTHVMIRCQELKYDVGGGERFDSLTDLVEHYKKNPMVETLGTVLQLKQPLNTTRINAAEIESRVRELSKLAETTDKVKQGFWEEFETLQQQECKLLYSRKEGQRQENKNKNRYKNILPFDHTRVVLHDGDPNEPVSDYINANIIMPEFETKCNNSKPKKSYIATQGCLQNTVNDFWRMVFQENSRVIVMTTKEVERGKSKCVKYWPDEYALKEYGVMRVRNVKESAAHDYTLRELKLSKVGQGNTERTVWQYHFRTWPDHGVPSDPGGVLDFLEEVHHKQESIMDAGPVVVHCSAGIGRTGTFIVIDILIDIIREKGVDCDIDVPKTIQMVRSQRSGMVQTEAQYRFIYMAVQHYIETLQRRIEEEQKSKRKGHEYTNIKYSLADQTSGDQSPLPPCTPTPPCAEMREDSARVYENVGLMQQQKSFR
Outline: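 MV-411 cells (1×10^6 cells/well, IMDM + 10% FBS) were treated 24 h with compound at 0.1-100 nM final, 0.1% DMSO, duplicates. SHP2 measured by Western blot against GAPDH, band density normalised to DMSO control; DC50 from dose-response fit.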

| DC50 | Compound |
| --- | --- |
| < 100 nM | Cc1ncsc1-c1ccc([C@H](C)NC(=O)[C@@H]2C[C@@H](O)CN2C(=O)[C@@H](NC(=O)c2cnc(N3CCN(CCCCCCCCC(=O)Nc4cccc(Sc5cnc(N6CCC(C)(N)CC6)cn5)c4)CC3)nc2)C(C)(C)C)cc1 [Compound 47] |
| < 100 nM | CC1(N)CCN(c2cnc(Sc3cccc(NC(=O)CCCCCCCN4CC5(CCN(c6ncc(C(=O)NCc7ccc8c(c7)CN(C7CCC(=O)NC7=O)C8=O)cn6)C5)C4)c3)cn2)CC1 (stereo not shown) [Compound 70] |
| > 1000 nM | CC1(N)CCN(c2cnc(Sc3cccc(NC(=O)CCC(=O)NCCOCCOCC(=O)NCc4ccc5c(c4)CN(C4CCC(=O)NC4=O)C5=O)c3)cn2)CC1 (stereo not shown) [Compound 19] |
| < 100 nM | C[C@@H]1OCC2(CCN(c3cnc(Sc4cccc(NC(=O)COCCCCCN5CC6(CCN(c7ccc(C(=O)NCc8ccc9c(c8)CN(C8CCC(=O)NC8=O)C9=O)nn7)C6)C5)c4)cn3)CC2)[C@@H]1N (stereo partly shown) [Compound 121] |
| > 1000 nM | CC1(N)CCN(c2cnc(Sc3cccc(NC(=O)[C@H]4CCC[C@@H]4C(=O)N4CCN(CCCCCCCCC(=O)Nc5ccc6c(c5)C(=O)N(C5CCC(=O)NC5=O)C6)CC4)c3)cn2)CC1 (stereo partly shown) [Compound 24] |
| > 1000 nM | CC1(N)CCN(c2cnc(Sc3cccc(NC(=O)CCN4CC5(CCN(c6ccc(C(=O)NCc7ccc8c(c7)CN(C7CCC(=O)NC7=O)C8=O)nn6)C5)C4)c3)cn2)CC1 (stereo not shown) [Compound 97] |
| > 1000 nM | Cc1nc2cccc(NC(=O)CCCCCCCCN3CCN(C(=O)CCC(=O)Nc4cccc(Sc5cnc(N6CCC(C)(N)CC6)cn5)c4)CC3)c2c(=O)n1C1CCC(=O)NC1=O (stereo not shown) [Compound 35] |
| > 1000 nM | C[C@@H]1OCC2(CCN(c3cnc(Sc4cccc(NC(=O)CCCCCCCN5CC6(CCN(Cc7ccc(COc8cccc9c8CN(C8CCC(=O)NC8=O)C9=O)cc7)C6)C5)c4)cn3)CC2)[C@@H]1N (stereo partly shown) [Compound 113] |
| < 100 nM | Cc1ncsc1-c1ccc([C@H](C)NC(=O)[C@@H]2C[C@@H](O)CN2C(=O)[C@@H](NC(=O)c2ccc(N3CCC4(CN(CCCCCOCC(=O)Nc5cccc(Sc6cnc(N7CCC8(CC7)CO[C@@H](C)[C@H]8N)cn6)c5)C4)C3)nn2)C(C)(C)C)cc1 [Compound 120] |
| < 100 nM | Cc1ncsc1-c1ccc([C@H](C)NC(=O)[C@@H]2C[C@@H](O)CN2C(=O)[C@@H](NC(=O)CCCCCCCCN2CCN(C(=O)[C@H]3CCC[C@@H]3C(=O)Nc3cccc(Sc4cnc(N5CCC(C)(N)CC5)cn4)c3)CC2)C(C)(C)C)cc1 [Compound 28] |
| < 100 nM | CC1(N)CCN(c2cnc(Sc3cccc(NC(=O)CCCCCCCN4CC5(C4)CN(c4ccc(C(=O)NCc6ccc7c(c6)CN(C6CCC(=O)NC6=O)C7=O)nn4)C5)c3)cn2)CC1 (stereo not shown) [Compound 81] |
| > 1000 nM | CC1(C(N)=O)CCN(c2cnc(Sc3cccc(NC(=O)CCCCCCCCN4CCN(c5ncc(C(=O)NCc6cccc7c6CN(C6CCC(=O)NC6=O)C7=O)cn5)CC4)c3)cn2)CC1 (stereo not shown) [Compound 61] |
| > 1000 nM | CC(=O)NC1(C)CCN(c2cnc(Sc3cccc(NC(=O)CCCCCCCCN4CCN(c5ncc(C(=O)NCc6ccc7c(c6)CN(C6CCC(=O)NC6=O)C7=O)cn5)CC4)c3)cn2)CC1 (stereo not shown) [Compound 85] |
| < 100 nM | NC1(CO)CCN(c2cnc(Sc3cccc(NC(=O)CCCCCCCCN4CC=C(c5ccc(C(=O)NCc6ccc7c(c6)CN(C6CCC(=O)NC6=O)C7=O)nn5)CC4)c3)cn2)CC1 (stereo not shown) [Compound 202] |
| < 100 nM | CC1(N)CCN(c2cnc(Sc3cccc(NC(=O)CCCCCCCN4CC5(CC(n6cc(C(=O)NCc7ccc8c(c7)CN(C7CCC(=O)NC7=O)C8=O)cn6)C5)C4)c3)cn2)CC1 (stereo not shown) [Compound 128] |
| < 100 nM | Cc1ncsc1-c1ccc([C@H](C)NC(=O)[C@@H]2C[C@@H](O)CN2C(=O)[C@@H](NC(=O)c2ccc(N3CC[C@H](OCCCCCCCC(=O)Nc4cccc(Sc5cnc(N6CCC(C)(N)CC6)cn5)c4)C3)nn2)C(C)(C)C)cc1 [Compound 101] |
| < 100 nM | CC1(N)CCN(c2cnc(Sc3cccc(NC(=O)CCCCCCCCN4C5CCC4CN(c4ccc(CN6CCN(c7ccc8c(c7)C(=O)N(C7CCC(=O)NC7=O)C8=O)CC6)nn4)C5)c3)cn2)CC1 (stereo not shown) [Compound 149] |
| < 100 nM | CC1(N)CCN(c2cnc(Sc3cccc(NC(=O)CCCCCCCN4CC5(CCN(c6ccc(C(=O)NCc7ccc8c(c7)CN(C7CCC(=O)NC7=O)C8=O)nn6)C5)C4)c3)cn2)CC1 (stereo not shown) [Compound 106] |
| > 1000 nM | CC1(N)CCN(c2cnc(Sc3cccc(NC(=O)CCC(=O)NCCOCCOCCOCC(=O)Nc4ccc5c(c4)C(=O)N(C4CCC(=O)NC4=O)C5)c3)cn2)CC1 (stereo not shown) [Compound 22] |

| DC50 | Compound |
| --- | --- |
| 100 to 1000 nM | Cc1ncsc1-c1ccc([C@H](C)NC(=O)[C@@H]2C[C@@H](O)CN2C(=O)[C@@H](NC(=O)[C@@H]2C[C@H]2C(=O)N2CCC3(CN(CCCCCCC(=O)Nc4cccc(Sc5cnc(N6CCC(C)(N)CC6)cn5)c4)C3)C2)C(C)(C)C)cc1 [Compound 126] |
| > 1000 nM | CC1(N)CCN(c2cnc(Sc3cccc(NC(=O)CCCCCCCN4CC5(C4)CN(C(=O)/C=C/C(=O)NCc4ccc6c(c4)CN(C4CCC(=O)NC4=O)C6=O)C5)c3)cn2)CC1 (stereo not shown) [Compound 114] |
| < 100 nM | NC1CCN(c2cnc(Sc3cccc(NC(=O)CCCCCCN4CC5(CCN(c6ccc(C(=O)NCc7ccc8c(c7)CN(C7CCC(=O)NC7=O)C8=O)nn6)C5)C4)c3)cn2)CC1CO (stereo not shown) [Compound 194] |
| < 100 nM | Cc1ncsc1-c1ccc([C@H](C)NC(=O)[C@@H]2C[C@@H](O)CN2C(=O)[C@@H](NC(=O)CCCCCCCCCCCCC(=O)Nc2cccc(Sc3cnc(N4CCC(C)(N)CC4)cn3)c2)C(C)(C)C)cc1 [Compound 50] |
| < 100 nM | Cc1ncsc1-c1ccc([C@H](C)NC(=O)[C@@H]2C[C@@H](O)CN2C(=O)[C@@H](NC(=O)c2ccc(N3CCC4(CN(CCCCCOCC(=O)Nc5ccc(Sc6cnc(N7CCC(N)(CF)CC7)cn6)cc5)C4)C3)nn2)C(C)(C)C)cc1 [Compound 122] |
| < 100 nM | Cc1ncsc1-c1ccc([C@H](C)NC(=O)[C@@H]2C[C@@H](O)CN2C(=O)[C@@H](NC(=O)CCCCCCCCCCCCCCC(=O)Nc2cccc(Sc3cnc(N4CCC(C)(N)CC4)cn3)c2)C(C)(C)C)cc1 [Compound 51] |
| 100 to 1000 nM | NC1(CF)CCN(c2cnc(Sc3ccc(NC(=O)COCCCCCN4CC5(CCN(c6ccc(C(=O)NCc7ccc8c(c7)CN(C7CCC(=O)NC7=O)C8=O)nn6)C5)C4)cc3)cn2)CC1 (stereo not shown) [Compound 123] |
| > 1000 nM | CC1(N)CCN(c2cnc(Sc3cccc(NC(=O)CCCCCCCCCCCCCCC(=O)NCc4ccc5c(c4)CN(C4CCC(=O)NC4=O)C5=O)c3)cn2)CC1 (stereo not shown) [Compound 42] |
| > 1000 nM | CC(C)(C)OC(=O)NC1CN(c2cnc(Sc3cccc(NC(=O)CCCCCCN4CC5(CCN(c6ccc(C(=O)NCc7ccc8c(c7)CN(C7CCC(=O)NC7=O)C8=O)nn6)C5)C4)c3)cn2)CC1O (stereo not shown) [Compound 205] |
| < 100 nM | Cc1ncsc1-c1ccc([C@H](C)NC(=O)[C@@H]2C[C@@H](O)CN2C(=O)[C@@H](NC(=O)c2cnc(N3CCC4(CN(CCCCCCCC(=O)Nc5cccc(Sc6cnc(N7CCC(C)(N)CC7)cn6)c5)C4)C3)nc2)C(C)(C)C)cc1 [Compound 71] |
| > 1000 nM | CC1(N)CCN(c2cnc(Sc3cccc(NC(=O)CCCCCCCOC4CCN(c5ncc(C(=O)Nc6ccc7c(c6)C(=O)N(C6CCC(=O)NC6=O)C7)cn5)CC4)c3)cn2)CC1 (stereo not shown) [Compound 94] |
| < 100 nM | Cc1ncsc1-c1ccc([C@H](C)NC(=O)[C@@H]2C[C@@H](O)CN2C(=O)[C@@H](NC(=O)[C@@H]2C[C@H]2C(=O)N2CCC3(CN(C(=O)CCCCCC(=O)Nc4cccc(Sc5cnc(N6CCC(C)(N)CC6)cn5)c4)C3)C2)C(C)(C)C)cc1 [Compound 130] |
| < 100 nM | Cc1ncsc1-c1ccc([C@H](C)NC(=O)[C@@H]2C[C@@H](O)CN2C(=O)[C@@H](NC(=O)CCCCCCCCN2CCN(C(=O)CCC(=O)Nc3cccc(Sc4cnc(N5CCC(C)(N)CC5)cn4)c3)CC2)C(C)(C)C)cc1 [Compound 34] |
| < 100 nM | CC1(N)CCN(c2cnc(Sc3cccc(NC(=O)CCCCCCCCCCC(=O)NCc4ccc5c(c4)CN(C4CCC(=O)NC4=O)C5=O)c3)cn2)CC1 (stereo not shown) [Compound 40] |
| 100 to 1000 nM | Cc1ncsc1-c1ccc([C@H](C)NC(=O)[C@@H]2C[C@@H](O)CN2C(=O)[C@@H](NC(=O)c2ccc(N3CCN(CCCCCCCCC(=O)Nc4cccc(Sc5cnc(N6CCC(C)(N)CC6)cn5)c4)CC3)nn2)C(C)(C)C)cc1 [Compound 62] |
| > 1000 nM | CC1(N)CCN(c2cnc(Sc3cccc(NC(=O)CCCCCCN4CC5(CCN(c6ccc(C(NCc7ccc8c(c7)CN(C7CCC(=O)NC7=O)C8=O)C(F)(F)F)nn6)C5)C4)c3)cn2)CC1 (stereo not shown) [Compound 193, N-(3-((5-(4-amino-4-methylpyridin-1-yl)pyrazin-2-yl)thio)phenyl)-7-(6-(6-(1-(((2-(2,6-dioxopiperidin-3-yl)-1-oxoisoindol-5-yl)methyl)amino)-2,2,2-trifluoroethyl)pyridazin-3-yl)-2,6-diazaspiro[3.4]octan-2-yl)heptanamide] |
| > 1000 nM | Cc1ncsc1-c1ccc([C@H](C)NC(=O)[C@@H]2C[C@@H](O)CN2C(=O)[C@@H](NC(=O)/C=C/C(=O)N2CC3(CN(CCCCCCCC(=O)Nc4cccc(Sc5cnc(N6CCC(C)(N)CC6)cn5)c4)C3)C2)C(C)(C)C)cc1 [Compound 115] |
| > 1000 nM | CC1(N)CCN(c2cnc(Sc3cccc(NC(=O)CCCCCCCCC(=O)NCc4ccc5c(c4)CN(C4CCC(=O)NC4=O)C5=O)c3)cn2)CC1 (stereo not shown) [Compound 53] |
